We go through one compound from patent US10179770B2, “Quinolines derivatives as novel anticancer agents” (GENOSCIENCE PHARMA, priority 2013, dated 2019).

Assay [1] concerns B16F10. The assay is described as follows: CellTiter-Glo cell viability assay (example 57). Format: cell-based, human. As to conditions: Mus musculus, B16-F10; B16F10 (Melanoma); Cell Titer-Glo; 72 h.
In assay [2] the test system is SK-MEL-28 cell line. As to the kind of experiment: Combination of XIX-3 and Zelboraf, Bliss independence model. Format: cell-based, human. As to conditions: XIX-3 associated with Zelboraf, 72 h. As to the method: The human melanoma cell line SK-MEL-28 was cultured in Minimum Essential Medium (MEM) supplemented with 10% Fetal Bovine Serum and 1% Penicillin-Streptomycin and maintained at 37° C. with 5% CO2.
SK-MEL-28 cells were plated at 2,500 cells per well onto 96-well plates in 90 μL of media per well and were allowed to grow overnight before the assay. XIX-3 and Zelboraf, a compound used for treatment for BRAF V600E mutation-positive metastatic melanoma, were added at different concentrations (combinations of five concentrations of XIX-3 and six concentrations of Zelboraf) to each well, and cell cultures were incubated for 72 h. […] Cell outgrowth was measured using a […] Aqueous One Solution Cell Proliferation Assay (Promega) and a TECAN Sunrise plate reader.
In each experiment, each point represents the average of triplicates in cell culture. The effects of drug-drug combinations are evaluated in the Bliss independence model (Prichard M. N. and Shipman C. Jr. Antivir. Res. 1990 (14) 181-205; Prichard, M. L. et al. Antimicrob Agents Chemother 1993 (37) 540-545). The theoretical additive effect is calculated from the dose-response curves of individual compounds by the equation: Z=X+Y(1−X) (7) Where: • Z represents the total inhibition produced by the combination of drugs X and Y. • X and Y represent the inhibition produced by drugs X and Y alone, respectively. […]

For assay [3], the system named is OVCAR-4. As to the kind of experiment: NCI-60 screen (SRB). Format: cell-based. As to conditions: OVCAR-4 (Ovarian). In short, it runs like this:
(§1)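 Cells grown in RPMI 1640 with 5% FBS were plated, left 24 h, then exposed to five drug concentrations for 48 h at 37 °C. TCA-fixed protein was stained with SRB and read at 515 nm. GI50, TGI and LC50 were derived against time-zero and untreated control absorbances.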

Assay [4] has as its system RPMI-8226. As to the kind of experiment: NCI-60 screen (SRB). Format: cell-based. As to conditions: RPMI-8226 (Leukemia). The method, boiled down: as §1
The subject of assay [5] is HL-60. As to the kind of experiment: NCI-60 screen (SRB). Format: cell-based. As to conditions: HL-60 (Leukemia). In short, it runs like this:
as §1

Where [6] appears, read: Homo sapiens, read-out: LC50 (the source's name).

As to `CCN(CC)C1CCN(C(C)c2cc(-c3ccccc3)nc3ccccc23)CC1.Cl.Cl` (centres unmarked) [XIX-3, 2-phenyl-4-{1-[4-(N,N-diethylamino)piperidin-1-yl]-eth-1-yl}quinoline dihydrochloride], in assay [1], the EC50 – broadly, the concentration at which the effect is half-maximal – was found to be 10 µM. In assay [2], the “Combination effect on cell viability (Bliss independence model)” value was “additive effect (between −20% to +20% indicates additive effect)”. Besides, the GI50 (commonly the concentration at which growth is held to half of that of the control) is 11 µM in assay [3] (Homo sapiens), 2 µM in assay [4] (Homo sapiens) and 17 µM in assay [5] (Homo sapiens). The figures for the CC50 in assay [3] (setting [6]), in assay [4] (setting [6]) and in assay [5] (setting [6]) were 52 µM, 26 µM and 66 µM, respectively. Also, the TGI (in general, the concentration at which net growth stops) was found to be 24 µM in assay [3], 5 µM in assay [4] and 33 µM in assay [5]. The “Growth percent at 10 μM” value is listed as “++ (cell growth 40 > % < 60)” in assay [3] (10 μM), “++++ (cell growth % < 20)” in assay [4] (10 μM) and “++ (cell growth 40 > % < 60)” in assay [5] (10 μM).
